Values of other authors, collected in patent publication US11135271B2, “Glucagon derivatives with improved stability” (HANMI PHARM. CO., LTD., priority 2014, dated 2021).

Key:
[1] = according to reports
[2] = when taken for 1 year

For `CC(C)CC(N(C)C)C1(c2ccc(Cl)cc2)CCC1` (stereo not drawn) [Sibutramine], the side-effect [1] is given as “cardiovascular side-effects”.
For `Cc1c(C(=O)NN2CCCCC2)nn(-c2ccc(Cl)cc2Cl)c1-c1ccc(Cl)cc1` [Rimonabant], the side-effect [1] is listed as “central nervous system disorder”.
For `CCCCCCCCCCC[C@@H](C[C@@H]1OC(=O)[C@H]1CCCCCC)OC(=O)[C@H](CC(C)C)NC=O` [Orlistat], the weight loss [2] is given as “about 4 kg”.
